# Tests used:
# [1] = Hepatocyte stability determination; assay type: in vitro ADME; conditions: monkey and human hepatocytes
# Description: Incubation was conducted in 96-well cell culture plate format. The plates were labeled as T0, T15, T30, T60, T90, T0-MC, T90-MC and Blank, respectively. All plates were pre-warmed for 10 to 20 mins at 37±1°C in an incubator of 5% CO2 and saturated humidity. The vials of cryopreserved SD rat, beagle dog, cynomolgus monkey and human hepatocyte were removed from the liquid nitrogen container and immediately immersed in a water bath (the setting temperature was 37°C) for approximately 90 secs to allow the ice pellets melted. The melted ice pellets were transferred into pre-warmed 40 mL of Thawing Medium tubes mixed well by gently inverting the tubes then centrifuged at 100 ×g for 5 mins at room temperature. The supernatants were discarded and cell pellets were re-suspended by adding appropriate volumes of pre-warmed WEM. The cells viability of each species was determined using Trypan Blue exclusion. The viabilities of rat, dog, cynomolgus and human hepatocytes were 89.0%, 94.3%, 88.0% and 91.8%, respectively. Cells were finally diluted to 0.625×10^6 cells/mL with pre-warmed WEM. At each corresponding time point, the sample reactions were stopped by adding 150 μL of acetonitrile containing 200 ng/mL tolbutamide and 200 ng/mL labetalol as internal standards. All sample plates were thoroughly mixed and centrifuged at 3220 ×g for 20 mins. […]
# [2] = test system: HIV-GFP in LEDGF/p75 knockout Jurkat cell lines (1-F10 and 2-C10); assay: HIV-1 inhibition in infecting LEDGF/p75 knockout cells; assay type: cell-based; conditions: 60 nM
# Description: To test for STP0404’s inhibitory effects during the late stage of HIV-1 life cycle such as the maturation step, we employed the “producing cells” setup. In T75 tissue culture flasks, 293T cells were pre-treated with and without STP0404 (0 and 60 nM) for 2 hrs prior to transfection with pD3-HIV (13 μg) and pVSV-g (6 μg), using 0.3 mg/ml polyethylenimine. After 24 hrs incubation at 37°C, the supernatant was removed and replaced with fresh media with and without STP0404 (0 and 60 nM). 48 hrs later, D3-HIV vector from each treatment group was concentrated from the collected supernatant via ultracentrifugation (22,000 rpm for 2 hrs). Following p24 quantification, using 96-well plates, similar amount of respective D3-HIV vector was used to transduce Jurkat cells in triplicates for 48 hrs. The cells were harvested and fixed with 3.7% formaldehyde before being analyzed for GFP expression using FACS (Miltenyi Biotec, VYB). Separately, the “infecting cells” setup was used to investigate the inhibitory effects of STP0404 against the early stages of HIV-1 life cycle such as the integration and transcription steps. […] All data were analyzed using GraphPad Prism (Version 9). Unpaired t tests were performed to determine the significance of the readings in respective experimental set up relative to the untreated controls. […]
# MT4 cells = assay: Tissue culture cytotoxicity measurement in MT4 cells; assay type: cell-based
# Excerpt: Fig 1 ALLINI structures and STP0404 activities. […] Pyridine-based KF116, D. Pyrrolopyridine-based STP0404. The conserved chemical moiety containing tert-butoxy and carboxylic acid groups are marked by “]”.
# [3] = Four-week oral dose toxicology study in dogs (GLP); assay type: in vivo, beagle dogs; conditions: for NOAEL at 4 weeks: both sexes, beagle
# Description: STP0404 was administered orally to 10 or 15 SD rats/sex/group at dose levels of 100, 300 and 600 mg/kg/day for 4 weeks to evaluate its potential toxicity. The reversibility of any effects was also assessed following a 2-week untreated recovery period. Control animals (15 animals/sex) received the vehicle, 0.5 w/v% methylcellulose solution, in a similar manner for comparison. In addition, plasma STP0404 concentrations were determined using TK satellite animals (3 animals/sex/group) to evaluate systemic exposure of the animals to the test article. (Study no. YL18402). STP0404 was administered orally as a capsule to 4 or 6 dogs/sex/group at dose levels of 30, 60 and 90 mg/kg/day for 4 weeks to evaluate its potential toxicity. Control animals (6 animals/sex) received empty gelatin capsules in a similar manner for comparison. The reversibility of any effects was also assessed following a 2-week untreated recovery period (2 animals/sex/group for the control and 90 mg/kg/day groups). In addition, plasma STP0404 concentrations were determined using all tested animals (including control group) to evaluate systemic exposure of the animals to the test article (Study no. YL18403). The test was performed according to the Standard Operating Procedures (SOP) the Good Laboratory Practice (GLP) system of the INA Research.
smiles,measurement,setting,value
Cc1nc2c(c(C)c(C)n2Cc2cnn(C)c2)c(-c2ccc(Cl)cc2)c1[C@H](OC(C)(C)C)C(=O)O [STP0404],metabolic stability in hepatocytes (in words),[1],much longer metabolic stability
same,infection of LEDGF/p75 knockout Jurkat T cells,[2],failed to significantly inhibit infection
same,TC50,MT4 cells,"> 10,000 nM"
same,single dose well tolerated up to,"[3]; beagle dogs, oral",up to 500 mg/kg
same,NOAEL at 4 weeks,"[3]; dog, in vivo, dogs, 4-week once daily oral dose",90 mg/kg
same,NOAEL at 4 weeks,"[3]; dog, in vivo, male and female dogs, four-week oral",90 mg/kg/day
same,histopathology lesions (in words),"[3]; dog, in vivo",lesions were not observed in any organ
same,abnormal changes (in words),"[3]; dogs, 30 mg/kg, 60 mg/kg and 90 mg/kg, four-week oral",no abnormal changes were noted at any dose level
same,highest non-severely toxic dose (HNSTD),"[3]; four-week dog toxicology study, ICH guidance S9",90 mg/kg/day

# From publication PMC8297771 (PLoS Pathogens, 2021)
